According to publication PMC8465764 (Organic letters, 2021):

Tests used:
[1] = target: T1, S. aureus FabH (Staphylococcus aureus, UniProt Q8NXE2); experiment: FabH radiochemical assay, […]-ketoacyl-ACP formed; format: biochemical
T1 sequence (Q8NXE2 1-313): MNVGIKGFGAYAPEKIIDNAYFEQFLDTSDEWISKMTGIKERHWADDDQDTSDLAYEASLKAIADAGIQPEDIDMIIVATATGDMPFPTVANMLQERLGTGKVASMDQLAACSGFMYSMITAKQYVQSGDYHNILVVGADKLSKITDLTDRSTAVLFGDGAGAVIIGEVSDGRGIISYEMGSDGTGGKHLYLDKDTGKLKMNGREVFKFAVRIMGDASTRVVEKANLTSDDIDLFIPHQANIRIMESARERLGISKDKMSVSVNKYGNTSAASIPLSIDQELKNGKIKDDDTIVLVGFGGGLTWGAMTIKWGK

[2] = system: B. subtilis FabH; experiment: as above; format: biochemical, Bacillus subtilis

`C=C(C(=O)O)[C@@H]1O[C@H]1CCCCC=C(C)CCC[C@H](O)CC` [compound 2, conocandin B] showed an IC50 [1] of 18.8 ± 2.5 µM and an IC50 [2] of 53.5 ± 10.4 µM.
